Data on 1 molecule can be found in patent US10273226B2, “Pyrazolyl-heteroarylamides as pesticides” (Bayer Animal Health GmbH, priority 2014, dated 2019).

Holding throughout (type): in vivo
The subject of assay [1] is Boophilus microplus Parkhurst strain, SP-resistant. Briefly: Boophilus microplus dip test. The conditions noted are these: application rate 100 ppm, assessed after 7 days. Summed up: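 Efficacy reflects suppression of fertile egg laying: 0% means all eggs fertile, 100% none, read at 7 days, doubtful eggs kept ~42 days for larval hatch. Treatment was a complete dip of 8–10 engorged adult female ticks (SP-resistant Parkhurst strain) in a water dilution of a DMSO stock.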

The subject of assay [2] is Aedes aegypti strain MONHEIM. Briefly: Aedes test (AEDSAE surface treatment). The conditions noted are these: 24 hours after contact, read-out: efficacy (mortality in %). The protocol:
Aedes Test (AEDSAE Surface Treatment)
(§1) Solvent: acetone+2000 ppm rapeseed oil methyl ester (RME)
To produce an appropriate active ingredient formulation, the active ingredient is dissolved in the solvent (2 mg/ml). The active ingredient formulation is pipetted onto a glazed tile and, after it has dried off, adult mosquitoes of the species Aedes aegypti strain MONHEIM are placed onto the treated tile. The exposure time is 30 minutes.
(§2) 24 hours after contact with the treated surface, mortality in % is determined. 100% means that all the mosquitoes have been killed; 0% means that none of the mosquitoes have been killed.

The subject of the next assay is Myzus persicae. Briefly: Myzus persicae spray test. The following applies: application rate 100 g/ha; after 6 days. Summed up:
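Efficacy, as % of aphids killed (0-100%), was scored 6 days after spraying. Test solutions were made in solvent diluted with water containing 1000 ppm emulsifier. They were sprayed onto Brassica pekinensis leaf discs carrying mixed-stage Myzus persicae.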

For another assay, the system named is Tetranychus urticae. Briefly: Tetranychus urticae spray test, OP-resistant. The following applies: application rate 100 g/ha; after 6 days. Summed up: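 Percent kill is assessed 6 days after spraying infested Phaseolus vulgaris leaf discs, with all mite stages present. Compound is applied as a solvent/emulsifier aqueous formulation at the desired concentration.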

In a further assay the test system is Ctenocephalides felis. Briefly: Ctenocephalides felis oral test. The following applies: application rate 100 ppm in citrated cattle blood; after 2 days. A digest of the protocol: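 Percentage mortality recorded at 2 days, where 0% means no fleas killed. Compound dissolved in DMSO and diluted in citrated cattle blood, which roughly 20 unfed adult C. felis imbibe via a parafilm membrane.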

The next assay relates to Musca domestica. Briefly: Musca domestica test. The following applies: application rate 100 ppm; adult houseflies; after 2 days. Summed up: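 Ten adult Musca domestica are exposed to a sugar-soaked sponge carrying the water-diluted DMSO formulation; kill in % is read 2 days later.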
The subject of the next assay is Rhipicephalus sanguineus. Briefly: Rhipicephalus sanguineus in vitro contact test with adult brown dog ticks. The following applies: application rate 5 μg/cm^2 (500 g/ha); after 48 h; ticks dead or moribund. Summed up: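 Test tubes (25 ml) were coated by dissolving active ingredient in acetone p.a., diluting to the required concentration, and spreading 250 μl over the inner walls and base on an orbital shaker at 30 rpm for 2 h. Once dry, 5-10 adult Rhipicephalus sanguineus were added, and tubes were capped with perforated lids and kept horizontal in darkness at room temperature. At 48 h, ticks were knocked down and heated at 45-50° C. for up to 5 min. Those unable to climb away were counted dead or moribund, and efficacy ran from 0% to 100%.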

The test system of assay [3] is Anopheles gambiae strain RSPH (homozygot kdr). Briefly: Anopheles test (ANPHGB surface treatment). The conditions noted are these: application rate 100 mg/m^2, exposure 30 minutes, 24 hours after contact, read-out: efficacy (mortality in %). The protocol: Anopheles Test (ANPHGB Surface Treatment)
as §1
To produce an appropriate active ingredient formulation, the active ingredient is dissolved in the solvent (2 mg/ml). The active ingredient formulation is pipetted onto a glazed tile and, after it has dried off, adult mosquitoes of the species Anopheles gambiae strain RSPH (homozygot kdr) are placed onto the treated tile. The exposure time is 30 minutes.
as §2

Another assay concerns Phaedon cochleariae. Briefly: Phaedon cochleariae spray test. The following applies: application rate 100 g/ha; larvae; after 7 days. A digest of the protocol: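 Mortality of Phaedon larvae, in %, was read 7 days after release onto sprayed, dried Brassica pekinensis leaf discs. Test dilutions were prepared in water with 1000 ppm emulsifier. A score of 0% means no larvae died and 100% means all were killed.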

The next assay deals with Spodoptera frugiperda. Briefly: Spodoptera frugiperda spray test. The following applies: application rate 100 g/ha; caterpillars; after 7 days. A digest of the protocol:
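Percent kill of armyworm caterpillars was scored 7 days after they were placed on dried, sprayed Zea mays leaf discs. Spray solutions were made by dissolving active ingredient in solvent and diluting with 1000 ppm emulsifier water.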

For the molecule `Cn1nc(C(F)(F)C(F)(F)F)c(C(F)(F)F)c1-n1cc(-c2cccc(NC(=O)c3ccncc3)c2)cn1` [Example 1-001, N-{3-[2′-Methyl-5′-(pentafluoroethyl)-4′-(trifluoromethyl)-2′H-1,3′-bipyrazol-4-yl]-phenyl}isonicotinamide], in assay [1], the “efficacy (laying of fertile eggs)” value is 95%. In addition, the mortality (commonly the share of the test organisms that died) at 20 mg/m2 in [2] (application rate 20 mg/m^2, exposure 30 minutes) was 90 to 100%. Moreover, the mortality at 100 mg/m2 in assay [2] (application rate 100 mg/m^2, exposure 30 minutes) lay within 90 to 100%; in [3] it was 90 to 100%. Besides, the efficacy in the assay on Myzus persicae, in the assay on Tetranychus urticae, in the assay on Rhipicephalus sanguineus, with Phaedon cochleariae and with Spodoptera frugiperda was 100% throughout. Besides, the “efficacy (kill in %)” value in the assay on Ctenocephalides felis and with Musca domestica was 100% throughout.
